Experimental data as given in PMC3914206.

What was measured:
[1] = target: T1, panel of 442 kinases (Homo sapiens, UniProt O95382); type: binding; details: Compound Concentration 10 µM
T1 construct: purchased KINOMEscan
T1 sequence (O95382 1-1288): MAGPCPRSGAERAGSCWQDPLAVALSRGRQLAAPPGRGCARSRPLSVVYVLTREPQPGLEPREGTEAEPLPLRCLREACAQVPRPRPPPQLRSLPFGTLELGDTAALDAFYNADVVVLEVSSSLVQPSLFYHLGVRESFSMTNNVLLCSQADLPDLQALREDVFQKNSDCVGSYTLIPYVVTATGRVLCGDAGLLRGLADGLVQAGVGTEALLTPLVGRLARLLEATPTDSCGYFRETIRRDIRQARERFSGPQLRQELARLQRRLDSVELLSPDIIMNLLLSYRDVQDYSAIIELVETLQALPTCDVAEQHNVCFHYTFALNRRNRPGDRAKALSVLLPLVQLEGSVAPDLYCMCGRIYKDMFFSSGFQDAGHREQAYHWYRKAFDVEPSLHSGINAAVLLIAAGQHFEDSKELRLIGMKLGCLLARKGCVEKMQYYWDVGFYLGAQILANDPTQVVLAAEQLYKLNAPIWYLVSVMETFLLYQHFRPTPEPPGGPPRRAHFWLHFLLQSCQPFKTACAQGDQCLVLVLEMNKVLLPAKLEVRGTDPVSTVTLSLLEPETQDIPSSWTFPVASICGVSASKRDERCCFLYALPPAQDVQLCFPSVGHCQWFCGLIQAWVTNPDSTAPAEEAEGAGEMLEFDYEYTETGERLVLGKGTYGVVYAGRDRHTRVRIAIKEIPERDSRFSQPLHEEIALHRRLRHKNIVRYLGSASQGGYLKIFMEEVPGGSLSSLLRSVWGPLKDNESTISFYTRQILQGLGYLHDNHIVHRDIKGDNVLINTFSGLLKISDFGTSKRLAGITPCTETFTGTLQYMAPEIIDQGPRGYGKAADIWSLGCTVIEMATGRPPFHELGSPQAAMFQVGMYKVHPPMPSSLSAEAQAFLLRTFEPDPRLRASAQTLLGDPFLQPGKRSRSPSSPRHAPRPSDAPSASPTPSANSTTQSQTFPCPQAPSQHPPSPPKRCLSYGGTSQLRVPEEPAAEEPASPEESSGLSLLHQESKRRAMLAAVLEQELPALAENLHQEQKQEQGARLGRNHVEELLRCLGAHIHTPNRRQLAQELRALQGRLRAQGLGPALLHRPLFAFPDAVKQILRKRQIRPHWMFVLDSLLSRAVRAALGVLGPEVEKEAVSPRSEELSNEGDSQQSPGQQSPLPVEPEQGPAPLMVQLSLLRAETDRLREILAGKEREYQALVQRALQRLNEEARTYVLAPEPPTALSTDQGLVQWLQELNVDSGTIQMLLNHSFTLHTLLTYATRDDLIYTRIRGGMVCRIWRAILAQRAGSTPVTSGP
Source text: (§1) We assessed the selectivity of members of this scaffold using the KINOMEscan methodology across a near comprehensive panel of 442 kinases [[18,27]].

[2] = target: T2, panel of 442 kinases (Homo sapiens, UniProt Q9Y4K4); type: binding; details: Compound Concentration 10 µM
T2 construct: purchased KINOMEscan
Source text: as §1

T2 sequence (Q9Y4K4 whole entry): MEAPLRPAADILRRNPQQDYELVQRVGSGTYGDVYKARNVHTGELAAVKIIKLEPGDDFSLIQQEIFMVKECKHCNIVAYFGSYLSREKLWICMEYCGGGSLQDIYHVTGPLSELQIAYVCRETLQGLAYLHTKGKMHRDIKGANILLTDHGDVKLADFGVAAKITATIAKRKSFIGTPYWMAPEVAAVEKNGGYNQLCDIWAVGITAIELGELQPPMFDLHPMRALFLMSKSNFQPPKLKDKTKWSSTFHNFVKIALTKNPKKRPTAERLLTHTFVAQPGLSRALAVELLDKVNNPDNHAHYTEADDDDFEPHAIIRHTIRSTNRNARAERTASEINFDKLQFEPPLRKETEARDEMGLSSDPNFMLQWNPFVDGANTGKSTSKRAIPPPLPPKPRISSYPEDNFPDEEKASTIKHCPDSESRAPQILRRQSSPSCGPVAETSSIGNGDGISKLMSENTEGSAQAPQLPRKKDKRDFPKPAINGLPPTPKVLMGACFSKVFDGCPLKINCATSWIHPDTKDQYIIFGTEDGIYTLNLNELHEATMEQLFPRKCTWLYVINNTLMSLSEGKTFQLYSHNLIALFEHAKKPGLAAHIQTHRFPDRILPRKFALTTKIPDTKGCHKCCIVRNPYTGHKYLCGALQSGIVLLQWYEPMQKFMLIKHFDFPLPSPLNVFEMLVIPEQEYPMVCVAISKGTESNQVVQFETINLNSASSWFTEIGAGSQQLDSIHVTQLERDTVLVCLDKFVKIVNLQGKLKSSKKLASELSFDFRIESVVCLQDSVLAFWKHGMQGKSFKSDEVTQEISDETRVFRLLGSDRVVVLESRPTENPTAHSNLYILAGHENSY

COc1cc(C(=O)N2CCC(N3CCN(C)CC3)CC2)ccc1Nc1ncc2c(n1)N(C1CCCC1)c1ccccc1C(=O)N2C [Compound 25, 11-cyclopentyl-2-((2-methoxy-4-(4-(4-methylpiperazin-1-yl)piperidine-1-carbonyl)phenyl)amino)-5-methyl-5H-benzo[e]pyrimido[5,4-b][1,4]diazepin-6(11H)-one]
KINOMEscan: ASK2 [1]: 100
KINOMEscan: MAP4K5 [2]: 96

COc1cc(C(=O)N2CCC(N3CCN(C)CC3)CC2)ccc1Nc1ncc2c(n1)N1CCc3cccc(c31)C(=O)N2C [Compound 24]
KINOMEscan: MAP4K5 [2]: 72

COc1cc(C(=O)N2CCC(N3CCN(C)CC3)CC2)ccc1Nc1ncc2c(n1)N(C)c1ccccc1C(=O)N2C [15 (LRRK2-IN-1)]
KINOMEscan: ASK2 [1]: 100
KINOMEscan: MAP4K5 [2]: 100

CCOc1cc(C(=O)N2CCC(N3CCN(C)CC3)CC2)ccc1Nc1ncc2c(n1)N(C1CCCC1)c1ccccc1C(=O)N2C [Compound 26]
KINOMEscan: ASK2 [1]: 100
KINOMEscan: MAP4K5 [2]: 95
